Data reported in PubChem BioAssay (NCI).
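Here, GI50 denotes the concentration required for 50% inhibition of growth. Definition used: TGI = concentration required for complete inhibition of growth.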

Legend:
Assay in all cases: inhibition of tumour cell growth, NCI panel, 384-well format
MALME-3M melanoma = test system: MALME-3M melanoma
NCI/ADR-RES ovarian = test system: NCI/ADR-RES ovarian
U251 glioblastoma = test system: U251 glioblastoma
BT-549 breast = test system: BT-549 breast
HL-60(TB) leukemia = test system: HL-60(TB) leukemia
NCI-H226 lung = test system: NCI-H226 lung
NCI-H322M lung = test system: NCI-H322M lung
SNB-19 CNS = test system: SNB-19 CNS
MDA-MB-468 breast = test system: MDA-MB-468 breast
PC-3 prostate = test system: PC-3 prostate
RXF 393 renal = test system: RXF 393 renal
LOX IMVI melanoma = test system: LOX IMVI melanoma
SF-295 CNS = test system: SF-295 CNS
SNB-75 CNS = test system: SNB-75 CNS
M14 melanoma = test system: M14 melanoma
A498 renal = test system: A498 renal
EKVX NSCLC = test system: EKVX NSCLC
HOP-62 NSCLC = test system: HOP-62 NSCLC
SF-268 CNS = test system: SF-268 CNS
MCF7 breast = test system: MCF7 breast
K-562 leukemia = test system: K-562 leukemia
786-0 renal = test system: 786-0 renal
HOP-92 NSCLC = test system: HOP-92 NSCLC
T-47D breast = test system: T-47D breast
CAKI-1 renal = test system: CAKI-1 renal
COLO 205 colon = test system: COLO 205 colon
HCT-116 colon = test system: HCT-116 colon
TK-10 renal = test system: TK-10 renal
SK-MEL-2 melanoma = test system: SK-MEL-2 melanoma
NCI-H522 lung = test system: NCI-H522 lung
A549 NSCLC = test system: A549 NSCLC
HT29 colon = test system: HT29 colon
UACC-257 melanoma = test system: UACC-257 melanoma
SW-620 colon = test system: SW-620 colon
MDA-MB-435 melanoma = test system: MDA-MB-435 melanoma
MDA-MB-231 breast = test system: MDA-MB-231 breast
MOLT-4 leukemia = test system: MOLT-4 leukemia
IGROV1 ovarian = test system: IGROV1 ovarian
DU-145 prostate = test system: DU-145 prostate
HCC-2998 colon = test system: HCC-2998 colon
NCI-H460 NSCLC = test system: NCI-H460 NSCLC
OVCAR-4 ovarian = test system: OVCAR-4 ovarian
SF-539 CNS = test system: SF-539 CNS
NCI-H23 lung = test system: NCI-H23 lung
SN12C renal = test system: SN12C renal
SK-MEL-5 melanoma = test system: SK-MEL-5 melanoma
HCT-15 colon = test system: HCT-15 colon
HS 578T breast = test system: HS 578T breast
RPMI-8226 leukemia = test system: RPMI-8226 leukemia
CCRF-CEM leukemia = test system: CCRF-CEM leukemia
SK-MEL-28 melanoma = test system: SK-MEL-28 melanoma
OVCAR-3 ovarian = test system: OVCAR-3 ovarian
OVCAR-8 ovarian = test system: OVCAR-8 ovarian
OVCAR-5 ovarian = test system: OVCAR-5 ovarian
SK-OV-3 ovarian = test system: SK-OV-3 ovarian
UACC-62 melanoma = test system: UACC-62 melanoma
SR leukemia = test system: SR leukemia
ACHN renal = test system: ACHN renal
KM12 colon = test system: KM12 colon

## Cc1ccncc1N1CCN(c2ccnc(Cl)c2)C1=O
MALME-3M melanoma
  GI50: > 100 µM
  TGI: > 100 µM
NCI/ADR-RES ovarian
  GI50: > 100 µM
  TGI: > 100 µM
U251 glioblastoma
  GI50: > 100 µM
  TGI: > 100 µM
BT-549 breast
  GI50: > 100 µM
  TGI: > 100 µM
HL-60(TB) leukemia
  GI50: > 100 µM
  TGI: > 100 µM
NCI-H226 lung
  GI50: > 100 µM
  TGI: > 100 µM
NCI-H322M lung
  GI50: > 100 µM
  TGI: > 100 µM
SNB-19 CNS
  GI50: > 100 µM
  TGI: > 100 µM
MDA-MB-468 breast
  GI50: > 100 µM
  TGI: > 100 µM
PC-3 prostate
  GI50: > 100 µM
  TGI: > 100 µM
RXF 393 renal
  GI50: > 100 µM
  TGI: > 100 µM
LOX IMVI melanoma
  GI50: > 100 µM
  TGI: > 100 µM
SF-295 CNS
  GI50: > 100 µM
  TGI: > 100 µM
SNB-75 CNS
  GI50: > 100 µM
  TGI: > 100 µM
M14 melanoma
  GI50: > 100 µM
  TGI: > 100 µM
A498 renal
  GI50: > 100 µM
  TGI: > 100 µM
EKVX NSCLC
  GI50: > 100 µM
  TGI: > 100 µM
HOP-62 NSCLC
  GI50: > 100 µM
  TGI: > 100 µM
SF-268 CNS
  GI50: > 100 µM
  TGI: > 100 µM
MCF7 breast
  GI50: > 100 µM
  TGI: > 100 µM
K-562 leukemia
  GI50: > 100 µM
  TGI: > 100 µM
786-0 renal
  GI50: > 100 µM
  TGI: > 100 µM
HOP-92 NSCLC
  GI50: > 100 µM
  TGI: > 100 µM
T-47D breast
  GI50: > 100 µM
  TGI: > 100 µM
CAKI-1 renal
  GI50: > 100 µM
  TGI: > 100 µM
COLO 205 colon
  GI50: > 100 µM
  TGI: > 100 µM
HCT-116 colon
  GI50: > 100 µM
  TGI: > 100 µM
TK-10 renal
  GI50: > 100 µM
  TGI: > 100 µM
SK-MEL-2 melanoma
  GI50: > 100 µM
  TGI: > 100 µM
NCI-H522 lung
  GI50: > 100 µM
  TGI: > 100 µM
A549 NSCLC
  GI50: > 100 µM
  TGI: > 100 µM
HT29 colon
  GI50: > 100 µM
  TGI: > 100 µM
UACC-257 melanoma
  GI50: > 100 µM
  TGI: > 100 µM
SW-620 colon
  GI50: > 100 µM
  TGI: > 100 µM
MDA-MB-435 melanoma
  GI50: > 100 µM
  TGI: > 100 µM
MDA-MB-231 breast
  GI50: > 100 µM
  TGI: > 100 µM
MOLT-4 leukemia
  GI50: > 100 µM
  TGI: > 100 µM
IGROV1 ovarian
  GI50: > 100 µM
  TGI: > 100 µM
DU-145 prostate
  GI50: > 100 µM
  TGI: > 100 µM
HCC-2998 colon
  GI50: > 100 µM
  TGI: > 100 µM
NCI-H460 NSCLC
  GI50: > 100 µM
  TGI: > 100 µM
OVCAR-4 ovarian
  GI50: > 100 µM
  TGI: > 100 µM
SF-539 CNS
  GI50: > 100 µM
  TGI: > 100 µM
NCI-H23 lung
  GI50: > 100 µM
  TGI: > 100 µM
SN12C renal
  GI50: > 100 µM
  TGI: > 100 µM
SK-MEL-5 melanoma
  GI50: > 100 µM
  TGI: > 100 µM
HCT-15 colon
  GI50: > 100 µM
  TGI: > 100 µM
HS 578T breast
  GI50: > 100 µM
  TGI: > 100 µM
RPMI-8226 leukemia
  GI50: > 100 µM
  TGI: > 100 µM
CCRF-CEM leukemia
  GI50: > 100 µM
  TGI: > 100 µM
SK-MEL-28 melanoma
  GI50: > 100 µM
  TGI: > 100 µM
OVCAR-3 ovarian
  GI50: > 100 µM
  TGI: > 100 µM
OVCAR-8 ovarian
  GI50: > 100 µM
  TGI: > 100 µM
OVCAR-5 ovarian
  GI50: > 100 µM
  TGI: > 100 µM
SK-OV-3 ovarian
  GI50: > 100 µM
  TGI: > 100 µM
UACC-62 melanoma
  GI50: > 100 µM
  TGI: > 100 µM
SR leukemia
  GI50: > 100 µM
  TGI: > 100 µM
ACHN renal
  GI50: > 100 µM
  TGI: > 100 µM
KM12 colon
  GI50: > 100 µM
  TGI: > 100 µM
